We go through 19 molecules from ChEMBL document CHEMBL1201862, “PubChem BioAssay data set” (2004).

Each structure is given as a SMILES string.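 Five concentrations, 48 hours, 96-well plates. GI50 = concentration required for 50% inhibition of growth.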 Calls of active or inactive are those of the source. No stated cut-off is given here; in the data, active = GI50 up to about 1.1 µM and inactive = higher.

Some test systems named below: DMS-114; DMS-273; HOP-18; KM-20L2; RXF 631; SNB-78; XF498; LXFL 529; T47D.
Assay in all cases: NCI tumour cell line growth inhibition, 48 h

For the molecule `O=C(Nc1ccc(C(F)(F)F)cc1[N+](=O)[O-])C(=O)Nn1c(S)nc2ccccc2c1=O`, the GI50 in the experiment with DMS-114, with DMS-273, in the experiment on HOP-18, in the experiment with KM-20L2, in the experiment on RXF 631 and with SNB-78 was > 100 µM (inactive) each time. In addition, the GI50 in the experiment with XF498 was > 100 µM (inactive).
Consider `CCC/C(=N\NC(=O)c1cc2ccccc2cc1O)C(CC)C(=O)CCC(=O)N(Cc1ccccc1)Cc1ccccc1` (stereo not drawn), for which the GI50 is 26.3 µM (inactive) with DMS-114; 18.2 µM (inactive) in the experiment with DMS-273; 11 µM (inactive) with HOP-18; 43 µM (inactive) with KM-20L2; 29.6 µM (inactive) in the experiment with LXFL 529; 38.1 µM (inactive) with RXF 631. Also, the GI50 with SNB-78 was > 100 µM (inactive).
With `O=C(CC(=O)c1ccc([N+](=O)[O-])cc1)C(=O)Nc1nccs1`, the GI50 with DMS-114 was > 40.5 µM (inactive); in the experiment on DMS-273 it was > 100 µM (inactive); in the experiment with HOP-18, > 100 µM (inactive); in the experiment with KM-20L2, > 100 µM (inactive); with LXFL 529, > 100 µM (inactive); in the experiment on RXF 631 it was > 100 µM (inactive). Besides, the GI50 in the experiment on SNB-78 and in the experiment with XF498 was > 100 µM (inactive) each time.
For `Cc1nc(-c2cccnc2)sc1C(=O)/C=C/c1cccc([N+](=O)[O-])c1`, the GI50 in the experiment with DMS-114, with DMS-273, with HOP-18, in the experiment on KM-20L2 and in the experiment on RXF 631 was > 100 µM (inactive) each time.
Take `CCO/N=[N+](\[O-])N(CC)CC`: the GI50 in the experiment with DMS-273, in the experiment on KM-20L2, in the experiment on LXFL 529, in the experiment with RXF 631, in the experiment on SNB-78 and in the experiment on XF498 was > 100 µM (inactive) each time.
As for `COc1cc(OC)c([C@@H]2OC(=O)C3C2C(=O)O[C@H]3c2cc(OC)c(OC)cc2OC)cc1OC` (stereo partly drawn), the GI50 was 72.4 µM (inactive) in the experiment on DMS-114; > 100 µM (inactive) in the experiment with DMS-273; > 100 µM (inactive) in the experiment on HOP-18; > 100 µM (inactive) in the experiment on KM-20L2; > 100 µM (inactive) in the experiment on LXFL 529; > 100 µM (inactive) in the experiment with SNB-78. Besides, the GI50 in the experiment with XF498 was > 100 µM (inactive).
On to `COc1ccc(/C(Cl)=C(\C=O)c2ccc(Cl)cc2)cc1OC`, for which the GI50 with DMS-114 was 4.47 µM (inactive); in the experiment on DMS-273 it was 3.72 µM (inactive); in the experiment on HOP-18, 19.1 µM (inactive); in the experiment on KM-20L2, 7.62 µM (inactive); in the experiment with LXFL 529, 7.28 µM (inactive); in the experiment with RXF 631, 3.69 µM (inactive). In addition, the GI50 in the experiment on SNB-78 is 5.82 µM (inactive).
Turning to `C=CCCC(OCOCCOC)c1cc(C)c(O[Si](C)(C)C(C)(C)C)c(C)c1` (stereo not drawn), the GI50 in the experiment with DMS-114 is 11.7 µM (inactive); with HOP-18, 28.6 µM (inactive); in the experiment on KM-20L2, 13.2 µM (inactive); in the experiment on LXFL 529, 22.8 µM (inactive); in the experiment on RXF 631, 15.4 µM (inactive); with SNB-78, > 100 µM (inactive).
On to `C/C(=N\Nc1ccccc1)C(CN(C)C)C(c1ccccc1)c1c(O)c2ccccc2oc1=O` (stereo not drawn), for which the GI50 is > 100 µM (inactive) in the experiment with DMS-114; > 100 µM (inactive) in the experiment on KM-20L2; > 100 µM (inactive) in the experiment with LXFL 529; > 100 µM (inactive) in the experiment with RXF 631; 89.3 µM (inactive) in the experiment on T47D.
On to `O=C(N/N=C(\c1nc2ccc(Cl)cc2nc1O)C(O)c1ccccc1Cl)c1ccncc1` (stereo not drawn), for which the GI50 in the experiment with DMS-114, in the experiment on DMS-273, in the experiment with HOP-18, with KM-20L2, with LXFL 529 and with RXF 631 was > 100 µM (inactive) each time.
In the case of `COC(=O)C(C#N)C1NC(=O)c2ccccc21` (stereo not drawn), the GI50 in the experiment with DMS-114, with DMS-273, with HOP-18, in the experiment on KM-20L2, with RXF 631 and with SNB-78 was > 100 µM (inactive) in each case.
In the case of `CCCN(CCCCC(NC(C)=O)C(=O)NCc1ccccc1)C(=O)NC` (stereo not drawn), the GI50 in the experiment on DMS-114, with DMS-273, with KM-20L2, in the experiment on LXFL 529, in the experiment with RXF 631 and in the experiment on SNB-78 was > 100 µM (inactive) throughout. Also, in the experiment on XF498, the GI50 is > 100 µM (inactive).
`BrC/C=C/C[P+](c1ccccc1)(c1ccccc1)c1ccccc1`: the GI50 in the experiment with DMS-114 was 27.5 µM (inactive); with DMS-273, 2.44 µM (inactive); in the experiment on HOP-18, 67 µM (inactive); in the experiment on KM-20L2 it was 27.2 µM (inactive); in the experiment with LXFL 529, 1.7 µM (inactive); in the experiment on RXF 631 it was > 100 µM (inactive). Besides, the GI50 was 21 µM (inactive) in the experiment on SNB-78 and 11.1 µM (inactive) with XF498.
Turning to `Cc1c(N)nc(C(CC(N)=O)NCC(N)C(N)=O)nc1C(=O)NC(C(=O)NC(C)C(O)C(C)C(=O)NC(C(=O)NCCc1nc(-c2nc(C(=O)NCCCNCCCCN)cs2)cs1)C(C)O)C(OC1OC(CO)C(O)C(O)C1OC1OC(CO)C(O)C(OC(N)=O)C1O)c1c[nH]cn1` (stereo not drawn), the GI50 is 1.85 µM (inactive) with DMS-114; 0.957 µM (active) with DMS-273; > 10 µM (inactive) with HOP-18; > 10 µM (inactive) with KM-20L2; > 10 µM (inactive) with LXFL 529; 0.0274 µM (active) in the experiment on RXF 631. The GI50 in the experiment on SNB-78 is > 10 µM (inactive); in the experiment with XF498, 0.0413 µM (active).
For `O=C1OC(=O)C2C3C=CC(C12)C1C2C=CC2C31` (stereo not drawn), the GI50 is > 100 µM (inactive) with DMS-273; > 100 µM (inactive) in the experiment with HOP-18; > 100 µM (inactive) in the experiment on KM-20L2; > 100 µM (inactive) with LXFL 529; > 100 µM (inactive) in the experiment with RXF 631; 42.4 µM (inactive) in the experiment on XF498.
Turning to `C=C1C(OC(C)=O)CC(OC(C)=O)C2(C)C(OC(C)=O)C(OC(C)=O)C3=C(C)C(OC(=O)/C=C/c4ccccc4)CC(C(OC(C)=O)C12)C3(C)C` (stereo not drawn), the GI50 in the experiment with DMS-114 was > 100 µM (inactive); in the experiment with DMS-273 it was > 100 µM (inactive); in the experiment with HOP-18, 51.1 µM (inactive); with KM-20L2, > 100 µM (inactive); in the experiment on LXFL 529 it was 51.9 µM (inactive); in the experiment on RXF 631 it was 51.2 µM (inactive). The GI50 in the experiment with SNB-78 was 38.8 µM (inactive).
As for `CN(C)CCCNc1ccc2nnn3c4ccc([N+](=O)[O-])cc4c(=O)c1c23`, the GI50 was 1.89 µM (inactive) in the experiment with DMS-114; 0.685 µM (active) in the experiment on DMS-273; 0.729 µM (active) with HOP-18; 0.745 µM (active) with KM-20L2; 1.22 µM (inactive) with LXFL 529; 0.723 µM (active) in the experiment on RXF 631. Further, the GI50 was 2.08 µM (inactive) with SNB-78, 11.4 µM (inactive) in the experiment with T47D and 1.5 µM (inactive) in the experiment with XF498.
Consider `CN(C)Cc1cc(/C(=C(\C#N)c2ccccc2)c2ccc(O)cc2)ccc1O`, for which the GI50 was 15.1 µM (inactive) in the experiment with DMS-114; 17.4 µM (inactive) with DMS-273; 19.9 µM (inactive) with HOP-18; 20.4 µM (inactive) with KM-20L2; 18.2 µM (inactive) in the experiment with LXFL 529; 17.8 µM (inactive) with RXF 631. The GI50 in the experiment with SNB-78 is 32.1 µM (inactive).
With `CN(C)CCC1(C2=CCCC2)CC/C(=C\c2ccccc2Cl)C1=O` (stereo not drawn), the GI50 was 12.2 µM (inactive) in the experiment with DMS-114; 12.4 µM (inactive) with HOP-18; 11.5 µM (inactive) in the experiment with KM-20L2; 11.5 µM (inactive) in the experiment with LXFL 529; 6.07 µM (inactive) in the experiment with RXF 631; 12.4 µM (inactive) in the experiment with SNB-78.
